We go through 11 compounds from patent publication US11504382B2, “Tricyclic inhibitors of Hepatitis B virus” (Antios Therapeutics, Inc., priority 2018, dated 2022).

Experiment [1] has as its system HBV. The experiment is described as follows: HBV inhibition assay in HepAD38 cells (extracellular HBV DNA by direct qPCR). Type of experiment: cell-based, Hepatitis B virus. The note with it: 96 hours; for EC50: 8-point dose-response curve, read-out: HBV inh EC50; for Anti HBV Activity (conc μM): relative to non-treated reference.
The test system of experiment [2] is HBV. The note with it: Phase 1b proof-of-concept clinical studies; cited from earlier work.

Read-outs that look alike come from different tables or passages of the source. A value given as a limit tells only on which side of the number the result lay.

Turning to `Cc1cc(NC(=O)c2c3c(cn2C)S(=O)(=O)NC2CN(C(=O)C4(C)COC4)CC2CO3)ccc1F` (stereo not drawn) [Example E149, Trans-N-(4-fluoro-3-methylphenyl)-7-methyl-2-(3-methyloxetane-3-carbonyl)-2,3,3a,4,10,10a-hexahydro-1H,7H-dipyrrolo[3,4-b:3′,4′-f][1,4,5]oxathiazocine-8-carboxamide 5,5-dioxide], the concentration for a half-maximal effect (EC50) in the experiment with HBV [1] is less than 1 µM. Take `Cc1cc(NC(=O)c2c3c(cn2C)S(=O)(=O)NC2CN(C(=O)C45CC(CO4)C5)CC2CO3)ccc1F` (stereo not drawn) [Example E150, Trans-2-(2-oxabicyclo[2.1.1]hexane-1-carbonyl)-N-(4-fluoro-3-methylphenyl)-7-methyl-2,3,3a,4,10,10a-hexahydro-1H,7H-dipyrrolo[3,4-b:3′,4′-f][1,4,5]oxathiazocine-8-carboxamide 5,5-dioxide]: in the experiment with HBV [1] (Hepatitis B virus), the EC50 was less than 1 µM.

With `Cc1cc(NC(=O)c2c3c(cn2C)S(=O)(=O)NC2C(=O)N(Cc4ccccc4)CC2CO3)ccc1F` (stereo not drawn) [Example E155, Cis 2-benzyl-N-(4-fluoro-3-methylphenyl)-7-methyl-3-oxo-2,3,3a,4,10,10a-hexahydro-1H,7H-dipyrrolo[3,4-b:3′,4′-f][1,4,5]oxathiazocine-8-carboxamide 5,5-dioxide], in the experiment with HBV [1] (Hepatitis B virus), the EC50 was less than 1 µM.

Take `CCOC(=O)N1CC2CNc3c(cn(C)c3C(=O)Nc3ccc(F)c(C)c3)S(=O)(=O)NC2C1` (stereo not drawn) [Example E157, Cis Ethyl 8-((4-fluoro-3-methylphenyl)carbamoyl)-7-methyl-3a,4,7,9,10,10a-hexahydro-1H-dipyrrolo[3,4-c:3′,4′-g][1,2,6]thiadiazocine-2(3H)-carboxylate 5,5-dioxide]: the EC50 in the experiment on HBV [1] (Hepatitis B virus) was more than 1 µM. For `O=C(Nc1cc(F)c(F)c(F)c1)c1ccc(F)c(S(=O)(=O)N2CCC(O)CC2)c1` [NVR3-778], the “reduction in HBV DNA and serum HBV RNA” value with HBV [2] is “significant reduction in HBV DNA and serum HBV RNA”.

On to “Ethyl 8-((3-chloro-4-fluorophenyl)carbamoyl)-7-methyl-3a,4,10,10a-tetrahydro-1H,7H-dipyrrolo[3,4-b:3′,4′-f][1,4,5]oxathiazocine-2(3H)-carboxylate 5,5-dioxide (3aR,10aR) [Example E41]”, for which, in the experiment with HBV [1] (0.05 μM), the “Anti HBV Activity (conc μM)” value was “A (0.05) (HBV inhibition greater than 50% at the concentration indicated in the table)”. Also, the EC50 in the experiment on HBV [1] was less than 1 µM. On to “Ethyl 8-((3-chloro-4-fluorophenyl)carbamoyl)-7-methyl-3a,4,10,10a-tetrahydro-1H,7H-dipyrrolo[3,4-b:3′,4′-f][1,4,5]oxathiazocine-2(3H)-carboxylate 5,5-dioxide (3aS,10aS) [Example E42]”, for which the “Anti HBV Activity (conc μM)” value with HBV [1] (0.1 μM) is listed as “B (0.1) (HBV inhibition less than 50% at the concentration indicated in the table)”. The same measure, in the same setting: then “Ethyl 8-((4-fluoro-3-methylphenyl)carbamoyl)-7-methyl-3a,4,10,10a-tetrahydro-1H,7H-dipyrrolo[3,4-b:3′,4′-f][1,4,5]oxathiazocine-2(3H)-carboxylate 5,5-dioxide (3aS,10aS) [Example E40]”, with “B (0.1) (HBV inhibition less than 50% at the concentration indicated in the table)”; and “ethyl 7-methyl-8-((3,4,5-trifluorophenyl)carbamoyl)-3a,4,10,10a-tetrahydro-1H,7H-dipyrrolo[3,4-b:3′,4′-f][1,4,5]oxathiazocine-2(3H)-carboxylate 5,5-dioxide (3aR,10aR) [Example E31]”, with “B (0.1) (HBV inhibition less than 50% at the concentration indicated in the table)”. Take “ethyl 7-methyl-8-((3,4,5-trifluorophenyl)carbamoyl)-3a,4,10,10a-tetrahydro-1H,7H-dipyrrolo[3,4-b:3′,4′-f][1,4,5]oxathiazocine-2(3H)-carboxylate 5,5-dioxide (3aS,10aS) [Example E32]”: the “Anti HBV Activity (conc μM)” value with HBV [1] (0.1 μM) was “A (0.1) (HBV inhibition greater than 50% at the concentration indicated in the table)”. Further, in the experiment on HBV [1], the EC50 was less than 1 µM. “tert-butyl 7-methyl-8-((3,4,5-trifluorophenyl)carbamoyl)-3a,4,10,10a-tetrahydro-1H,7H-dipyrrolo[3,4-b:3′,4′-f][1,4,5]oxathiazocine-2(3H)-carboxylate 5,5-dioxide (3aR,10aR) [Example E33]”: the “Anti HBV Activity (conc μM)” value in the experiment on HBV [1] (0.1 μM) is “B (0.1) (HBV inhibition less than 50% at the concentration indicated in the table)”.
